Experimental findings from ChEMBL document CHEMBL6114980, “Single or double lipid-modified ultra-short antimicrobial peptides for treating infections caused by resistant bacteria” (Eur J Med Chem, 2025) are described below.

For test [1], the system named is Cell membrane. The experiment in a line: Induction of inner membrane permeabilization in Escherichia coli at 0.5 to 1 times MIC measured for 135 mins by absorbance based analysis.
Test [2] concerns Acinetobacter baumannii. The experiment in a line: Antibacterial activity against Acinetobacter baumannii ATCC 19606 assessed as reduction in bacterial growth incubated for 18 to 24 hrs by broth microdilution method. It is filed as functional. The following applies: time 18-24 hrs. A general note: Dilution methods test growth across graded concentrations, often in twofold steps.

Test [3] deals with Klebsiella pneumoniae. Nature of the test: Antibacterial activity against Klebsiella pneumoniae ATCC 700603 assessed as reduction in bacterial growth incubated for 18 to 24 hrs by broth microdilution method. It is filed as functional. The settings on record: time 18-24 hrs.
Test [4] has as its system Escherichia coli. Nature of the test: Antibacterial activity against Escherichia coli ATCC 25922 assessed as reduction in bacterial growth incubated for 18 to 24 hrs by broth microdilution method. It is filed as functional. The settings on record: time 18-24 hrs.
Test [5] concerns Pseudomonas aeruginosa. The experiment in a line: Antibacterial activity against Pseudomonas aeruginosa ATCC 27853 assessed as reduction in bacterial growth incubated for 18 to 24 hrs by broth microdilution method. It is filed as functional. The following applies: time 18-24 hrs.
The subject of test [6] is Enterococcus faecalis. The experiment in a line: Antibacterial activity against Enterococcus faecalis ATCC 29212 assessed as reduction in bacterial growth incubated for 18 to 24 hrs by broth microdilution method. It is filed as functional. The following applies: time 18-24 hrs.
Test [7] concerns Staphylococcus epidermidis. The experiment in a line: Antibacterial activity against Staphylococcus epidermidis ATCC 12228 assessed as reduction in bacterial growth incubated for 18 to 24 hrs by broth microdilution method. It is filed as functional. The following applies: time 18-24 hrs.
In test [8] the test system is Bacillus subtilis. The experiment in a line: Antibacterial activity against Bacillus subtilis ATCC 23857 assessed as reduction in bacterial growth incubated for 18 to 24 hrs by broth microdilution method. It is filed as functional. The settings on record: time 18-24 hrs.
Test [9] has as its system Staphylococcus aureus. Nature of the test: Antibacterial activity against Staphylococcus aureus ATCC 25923 assessed as reduction in bacterial growth incubated for 18 to 24 hrs by broth microdilution method. It is filed as functional. The following applies: time 18-24 hrs.
Test [10] relates to Cell membrane. The experiment in a line: Induction of cytoplasmic membrane depolarization in Escherichia coli assessed as increase in fluorescence intensity at 0.5 to 2 times MIC measured for 10 mins by DiSC3-5 dye based fluorescence assay.
Test [11] relates to Cell membrane. Nature of the test: Induction of cytoplasmic membrane depolarization in Staphylococcus aureus assessed as increase in fluorescence intensity at 0.5 to 4 times MIC measured for 1 mins by DiSC3-5 dye based fluorescence assay.

≈ marks a conversion by molar mass, not a printed value. Calls of active or inactive are those of the source. The rule behind the calls is not given here. Peptide text beside a SMILES is read from it. * marks the point of attachment. Myristoyl = CCCCCCCCCCCCCC(=O)*; Octanoyl = CCCCCCCC(=O)*

Consider `CC(C)(C)CC(C)(C)c1ccc(OCCO)cc1`, for which, in test [1], the outcome was Active.
A word on the MIC: it is the lowest concentration found to suppress growth. As to `CCCCCCCCCCCCCC(=O)NCCCC[C@H](NC(=O)CCCCCCCCCCCCC)C(=O)N[C@@H](CCCCN)C(=O)N[C@@H](CCCCN)C(=O)N[C@@H](Cc1c[nH]c2ccccc12)C(=O)N[C@@H](Cc1c[nH]c2ccccc12)C(N)=O` (Myristoyl-K(Myristoyl)KKWW-NH2), the MIC in [2], in test [3], in test [4], in test [5], in test [6] and in [7] was 128 µM (≈ 153 µg/mL) throughout. In addition, the MIC in test [8] and in test [9] was 128 µM (≈ 153 µg/mL) each time.
Regarding `CCCCCCCCCCCCCC(=O)N[C@@H](CCCCN)C(=O)N[C@@H](CCCCN)C(=O)N[C@@H](Cc1c[nH]c2ccccc12)C(=O)N[C@@H](Cc1c[nH]c2ccccc12)C(N)=O` (Myristoyl-KKWW-NH2), the MIC in test [2] is 32 µM (≈ 27.4 µg/mL); in test [3], 32 µM (≈ 27.4 µg/mL); in test [4], 32 µM (≈ 27.4 µg/mL); in test [5] it was 16 µM (≈ 13.7 µg/mL); in test [6], 8 µM (≈ 6.85 µg/mL); in test [7], 4 µM (≈ 3.42 µg/mL). Further, the MIC in [8] amounted to 2 µM (≈ 1.71 µg/mL); in [9], 4 µM (≈ 3.42 µg/mL). Further, in test [10], the Activity result was “Active; Compound Showed Similar Effect As Quality Control Polymyxin B”. For the same molecule, in test [11], the outcome was Active.
`CCCCCCCC(=O)N[C@@H](CCCCN)C(=O)N[C@@H](CCCCN)C(=O)N[C@@H](Cc1c[nH]c2ccccc12)C(=O)N[C@@H](Cc1c[nH]c2ccccc12)C(N)=O` (Octanoyl-KKWW-NH2): the MIC in test [2] worked out at 128 µM (≈ 98.8 µg/mL); in test [3], 128 µM (≈ 98.8 µg/mL); in test [4], 64 µM (≈ 49.4 µg/mL); in test [5], 16 µM (≈ 12.4 µg/mL); in test [6] it was 128 µM (≈ 98.8 µg/mL); in test [7], 32 µM (≈ 24.7 µg/mL). For the same molecule, the results for the minimal inhibitory concentration (MIC) in [8] and in [9] were 4 µM (≈ 3.09 µg/mL) and 32 µM (≈ 24.7 µg/mL), respectively.
